Consider 10 molecules from patent US11787792B2, “5-[[4-[[morpholin-2-yl]methylamino]-5-(trifluoromethyl)-2 Pyridyl]Amino]Pyrazine-2-carbonitrile and therapeutic uses thereof” (priority 2012, dated 2023).

In general, pIC50 refers to the IC50 on a negative log10 scale, so that one unit is a factor of ten.

Common to all, as to format: cell-based
Assay [1] relates to HT29 cells. The assay is described as follows: Cellular potency in Mitosis Inhibition Assay (MIA), checkpoint abrogation after etoposide. The note with it: for pIC50: Homo sapiens, HT-29, HT29 cells, etoposide pre-treatment, nocodazole, read-out: CHK1 Cellular Potency MIA IC50; for (fold better) Compound 1, CHK1 cellular potency MIA: fold by which Compound 1 is more potent than the compound; for (fold better) Compound 2, CHK1 cellular potency MIA: fold by which Compound 2 is more potent than the compound. As for the experimental part: Assay 2: Cellular Potency in Mitosis Inhibition Assay (MIA)
Checkpoint abrogation by CHK1 kinase function inhibitors in combination with genotoxic agents was assessed using a europium based ELISA assay designed to quantify the number of cells trapped in mitosis after treatment with a genotoxic agent (to induce G2 arrest) followed by a CHK1 inhibitor test compound in combination with nocodazole to abrogate this arrest. HT29 cells were seeded at 10^4 cells per well into 96-well plates in a volume of 160 μL and left to attach for 36 hours. […] After genotoxic drug exposure, the medium was removed and replaced with fresh medium (160 μL). […] CHK1 inhibitor test compounds were added in 40 μL aliquots using quadruplicate wells for each concentration. After 21 hours exposure, the medium was removed and cells were fixed in 4% formaldehyde in phosphate buffered saline (PBS, pH 7.4, pre-cooled to 4° C.) for 30 minutes at 4° C., followed by 100% methanol (pre-cooled to −20° C.) for 10 minutes at ambient temperature. Wells were washed with PBS and blocked with 5% dried milk (Marvel) in Tris-buffered saline (TBS, pH 7.4) at 37° C. for 30 minutes. Each well was washed three times with water containing 0.1% Tween 20. […] Primary antibody was removed and wells were washed with water containing 0.1% Tween 20.
Europium emissions were counted on a Wallac, Victor2 counter (Perkin-Elmer, Bucks UK).

Assay [2] deals with HT29 cells. The experiment in a line: Selectivity in cells for CHK1-dependent checkpoint abrogation versus cytotoxicity (Activity Index = SRB IC50/MIA IC50). Particulars: for (fold better) Compound 1, cellular selectivity: fold by which Compound 1 is more selective than the row's compound; for (fold better) Compound 2, cellular selectivity: fold by which Compound 2 is more selective than the row's compound. On the procedure: Assay 3: Assessment of Selectivity in Cells for CHK1-Dependent Checkpoint Abrogation Versus Cytotoxicity
Compound cytotoxicity was assessed using a 96 hour sulforhodamine B assay (SRB, Sigma catalog number S9012). HT29 or SW620 cells were seeded at 1.6 to 3.2×10^3 cells per well in 96-well plates in a volume of 160 μL medium and allowed to attach for 36 hours prior to treatment. […] Cells were incubated for 96 hours (four doublings) at 37° C. in a humidified 5% CO2 environment and then fixed and stained with SRB.
The Activity Index (AI), a measure of the selectivity of the CHK1 inhibitor test compounds for effecting CHK1-dependent checkpoint abrogation versus cytotoxicity was calculated from the ratio of the CHK1 inhibitor cytotoxicity IC50 versus the MIA IC50 (i.e., AI=CHK1 inhibitor SRB IC50/MIA IC50), both measured in HT29 cells.

Assay [3] concerns HT29 cells. The assay is described as follows: Cellular efficacy in combination with SN38 (SRB potentiation assay). Particulars: SRB IC50/Potentiation IC50, HT29 cells, SN38 at its IC50, 96 hours. As for the experimental part: Assay 4: Cellular Efficacy in HT29 or SW620 Colon Carcinoma Cells in Combination with SN38 or Gemcitabine
HT29 or SW620 cells were seeded at 1.6 to 3.2×10^3 cells per well in 96-well plates in a volume of 160 μL medium and allowed to attach for 36 hours prior to treatment.
The Potentiation Index (PI) was calculated as a measure of the ability of the CHK1 inhibitor to enhance SN38 or gemcitabine cytotoxicity and was defined as the ratio of the Cytotoxicity IC50 of the CHK1 inhibitor alone versus the Potentiation IC50 of the CHK1 inhibitor combined with the genotoxic (i.e., PI=CHK1 inhibitor SRB IC50/Potentiation IC50).

pIC50: −log10 of the molar value.

Consider `N#Cc1cnc(Nc2cc(NCC3CNCCO3)c(C(=O)Nc3ccccc3)cn2)cn1` (stereo not shown) [Compound Y-102], for which, in assay [1], the pIC50 was 6.10; the “(fold better) Compound 1, CHK1 cellular potency MIA” value is reported as about 27 fold; the “(fold better) Compound 2, CHK1 cellular potency MIA” value is given as about 44 fold. In assay [2], the “(fold better) Compound 1, cellular selectivity” value is recorded as about 5.6 fold and the “(fold better) Compound 2, cellular selectivity” value is reported as about 33 fold.

As to `COCc1ccc(-c2cnc(Nc3cnc(C#N)cn3)cc2NC[C@@H]2CNCCO2)cc1` [Compound Y-148], in assay [1], the pIC50 was 6.05; the “(fold better) Compound 1, CHK1 cellular potency MIA” value was about 30 fold; the “(fold better) Compound 2, CHK1 cellular potency MIA” value was about 50 fold. In addition, in assay [2], the “(fold better) Compound 1, cellular selectivity” value is about 5.9 fold and the “(fold better) Compound 2, cellular selectivity” value is recorded as about 34 fold.

`COCCCc1cnc(Nc2cnc(C#N)cn2)cc1NC[C@H]1CNCCO1` [Compound Y-159]: the pIC50 in assay [1] was 6.15.

For the molecule `COCCOc1ccc(-c2cnc(Nc3cnc(C#N)cn3)cc2NC[C@H]2CNCCO2)cc1` [Compound Y-157], in assay [1], the pIC50 is 6.22; the “(fold better) Compound 1, CHK1 cellular potency MIA” value is listed as about 20 fold; the “(fold better) Compound 2, CHK1 cellular potency MIA” value is reported as about 33 fold. In addition, in assay [3], the “Cell Efficacy + SN38 in HT29 cells (Potentiation Index)” value was found to be 2 fold. Moreover, in assay [2], the “(fold better) Compound 1, cellular selectivity” value was about 4.1 fold and the “(fold better) Compound 2, cellular selectivity” value is on record as about 24 fold.

Consider `N#Cc1cnc(Nc2cc(NC[C@@H]3CNCCO3)c(C(F)(F)F)cn2)cn1` [Compound 2, 5-[[4-[[(2S)-Morpholin-2-yl]methylamino]-5-(trifluoromethyl)-2-pyridyl]amino]pyrazine-2-carbonitrile], for which, in assay [1], the pIC50 is 7.74.

In the case of `COCC#Cc1cnc(Nc2cnc(C#N)cn2)cc1NC[C@@H]1CNCCO1` [Compound Y-154], the pIC50 in assay [1] was 7.05.

In the case of `N#Cc1cnc(Nc2cc(NC[C@H]3CNCCO3)c(C(F)(F)F)cn2)cn1` [Compound 1, 5-[[4-[[(2R)-Morpholin-2-yl]methylamino]-5-(trifluoromethyl)-2-pyridyl]amino]pyrazine-2-carbonitrile], the pIC50 in assay [1] was 7.52.

As for `COCc1ccc(-c2cnc(Nc3cnc(C#N)cn3)cc2NC[C@H]2CNCCO2)cc1` [Compound Y-156], in assay [1], the pIC50 is 6.25; the “(fold better) Compound 1, CHK1 cellular potency MIA” value is given as about 19 fold; the “(fold better) Compound 2, CHK1 cellular potency MIA” value was about 31 fold. The “Cell Efficacy + SN38 in HT29 cells (Potentiation Index)” value in assay [3] came to 1.6 fold. Also, in assay [2], the “(fold better) Compound 1, cellular selectivity” value is about 4.8 fold and the “(fold better) Compound 2, cellular selectivity” value is about 28 fold.

On to `COC(C)(C)C#Cc1cnc(Nc2cnc(C#N)cn2)cc1NC[C@@H]1CNCCO1` [Compound Y-155], for which, in assay [1], the pIC50 is 6.92; the “(fold better) Compound 1, CHK1 cellular potency MIA” value is reported as about 4 fold; the “(fold better) Compound 2, CHK1 cellular potency MIA” value is about 7 fold. For the same molecule, the “Cell Efficacy + SN38 in HT29 cells (Potentiation Index)” value in assay [3] was 0.9 fold. In addition, in assay [2], the “(fold better) Compound 1, cellular selectivity” value is recorded as about 2.4 fold and the “(fold better) Compound 2, cellular selectivity” value is recorded as about 13 fold.

Consider `COCCOc1ccc(-c2cnc(Nc3cnc(C#N)cn3)cc2NC[C@@H]2CNCCO2)cc1` [Compound Y-149], for which, in assay [1], the pIC50 is 5.96; the “(fold better) Compound 1, CHK1 cellular potency MIA” value was about 34 fold; the “(fold better) Compound 2, CHK1 cellular potency MIA” value is about 61 fold. In assay [2], the “(fold better) Compound 1, cellular selectivity” value is on record as about 7.4 fold and the “(fold better) Compound 2, cellular selectivity” value is recorded as about 43 fold.
